These results are taken from patent US8754047B2, “Peptide compositions and methods of use” (The Research Foundation for the State University of New York, priority 2008, dated 2014).

Entries after “also recorded” stand apart in the source; their conditions may differ. Positions of bridges follow the written chain, without caps; N, C: chain ends. Residues, ends and D or L forms follow the SMILES beside them. No end group written: not given here.

Experiment [1] has as its system BxPC-3 human pancreatic cancer cells. Particulars: 24 h. As to the method: (§1) 10,000 HT29 or SW480 human colon cancer cells, BxPC-3 human pancreatic cancer cells, and MCF7 and MDA-MB-231 breast cancer cells were obtained from American Type Culture Collection (ATTC), Manassas, Va., and were seeded in separate 96-well plates. After treatment with various concentrations (6.25 μM, 12.5 μM, 25 μM, 50 μM, 100 μM, or 200 μM) of test peptide for 24 h, cells were stained with MTT (3-(4,5-Dimethyl-2-thiazolyl)-2,5-diphenyl-2H-tetrazolium bromide, from Sigma-Aldrich) following the instructions of the manufacturer. Before dissolving MTT in SDS, the HT29 and SW480 cells were photographed using a digital camera connected with a phase-contrast microscope. (FIG. 2A1-8, and FIG. 2B1-6). Cells that are alive convert MTT into formazan in their active mitochondria and appear dark purple; dead cells are not stained by MTT and appear colorless.
(§2) The IC50 is the concentration of the test agent that inhibits cell growth by 50% at 24 hours of exposure. IC50s were determined using the MTT assay or using the cell Titer-Glo method and following the instructions of the manufacturer ([…]). […] (Sun, Y., and Rigas, B., (2008), Cancer Res., 68(20): 8269-8277).

The test system of experiment [2] is MCF7 breast cancer cells. Particulars: 24 h. As to the method: as §1, §2
Experiment [3] concerns MDA-MB-231 breast cancer cells. Particulars: 24 h. The protocol: as §1, §2
The subject of experiment [4] is HT29, SW480, BxPC3, MCF7, and MDA-MB-231 cell lines. The class given is cell-based, human. Particulars: 24 h. The source says: (FIG. 2A1-8, and FIG. 2B1-6).
For experiment [5], the system named is SW480 human colon cancer cells. Nature of the experiment: Flow cytometry forward/side scatter, proportion of dead cells, SW480. The class given is cell-based. The protocol: (§3) SW480 human colon cancer cells and MCF7 breast cancer cells were grown following the instructions of American Type Culture Collection (ATCC, Monassas, Va.). The cells were treated with the test peptides (YJB01, YJB05, or YJB06) for 24 hrs at concentrations ranging from 0 μM, to 200 μM and subjected to flow cytometric analysis following standard protocols.
(§4) SW480 human colon cancer cells and MCF7 breast cancer cells were grown following the instructions of American Type Culture Collection (ATCC, Monassas, Va.). The cells were treated with the test peptides for 24 hrs at concentrations ranging from 0 μM, to 200 μM and subjected to flow cytometry analysis following standard protocols. […] The circumscribed (gated, outlined) areas in the figure indicate dead cells; dead cells generally have higher density (side scatter) and smaller size (forward scatter) than living cells.

Experiment [6] concerns MCF-7 human breast cancer cells. Nature of the experiment: Flow cytometry forward/side scatter, proportion of dead cells, MCF7. The class given is cell-based. Particulars: 200 μM, 24 hr. As to the method:
as §3, §4

The test system of experiment [7] is SW480 human colon cancer cells. Put plainly: Annexin V-FITC flow cytometry for apoptotic cells, SW480. The class given is cell-based. Particulars: 24 hrs, 0 μM to 200 μM. The protocol:
SW480 human colon cancer cells and MCF7 breast cancer cells were grown following the instructions of American Type Culture Collection (ATCC, Monassas, Va.). The cells were treated with the test peptides (YJB01, YJB05, or YJB06) for 24 hrs at concentrations ranging from 0 μM, to 200 μM. After treatment, cells were trypsinized and stained with Annexin V-FITC (100× dilution) for 15 minutes. Annexin V-FITC fluorescence intensities were analyzed by FACSCaliber (BD Bioscience) following standard protocols. Annexin V (+) cells are apoptotic cells.
When cells undergo apoptosis, the inner membrane phospholipid, phosphotidylserine (PS), flips to the outer membrane and can be recognized by the […]. The green FITC fluorescence can be determined by flow cytometry and thus Annexin V (+) cells are apoptotic cells.
In this study, SW480 human cancer cells and MCF7 breast cancer cells were grown following the instructions of American Type Culture Collection (ATCC, Monassas, Va.). The cells were treated with the test peptides (YJB01, YJB05, or YJB06) for 24 hrs at concentrations ranging from 0 μM, to 200 μM. After treatment cells were trypsinized and stained with Annexin V-FITC (100× dilution) for 15 minutes. Annexin V-FITC fluorescence intensities were analyzed by FACSCaliber (BD Bioscience) following standard protocols.

For experiment [8], the target named is T1, thioredoxin 1 (Homo sapiens, UniProt P10599).
T1 construct: endogenous in cells; host or cells: SW480 human colon cancer cells
T1 sequence (P10599 1-105): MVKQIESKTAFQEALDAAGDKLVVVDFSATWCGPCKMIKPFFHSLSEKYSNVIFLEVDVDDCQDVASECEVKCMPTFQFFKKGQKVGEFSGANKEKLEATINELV
Put plainly: Thioredoxin 1 redox state, native PAGE immunoblot in SW480 cells. Particulars: YJB01 20 μM and 100 μM, YJB05 100 μM. The class given is cell-based. As to the method:
SW480 human colon cancer cells were grown following the instructions of American Type Culture Collection (ATCC, Monassas, Va.). Cells were treated with either no peptide, with YBJ01 (at 20 μM and 100 μM), or with YBJ05 (at 100 μM). 10^6 cells were lysed in 6 mol/L guanidinium chloride, 50 mmol/L Tris/HCL (pH 8.3), 3 mmol/L EDTA, and 0.5% Triton-X-100 containing 50 mmol/L iodoacetic acid. After 30 min at 37° C., the excess idoacetic acid was removed using Microspin G-25 columns (GE Healthcare Life Sciences). Oxidized and reduced thioredxoin was separated by native PAGE. The gel was electroblotted onto a nitrocellulose membrane and probed with thioredoxin antibodies, followed by HRP-conjugated secondary antibody. Bands corresponding to thioredoxin were visualized by ECL.
SW480 human colon cancer cells were grown following the instructions of American Type Culture Collection (ATCC, Monassas, Va.). Cells were treated with either no peptide, with YBJ01 (at 20 μM and 100 μM), or with YBJ05 (at 100 μM). 10^6 cells from each sample were lysed in 6 mol/L guanidinium chloride, 50 mmol/L Tris/HCL (pH 8.3), 3 mmol/L EDTA, and 0.5% Triton-X-100 containing 50 mmol/L iodoacetic acid. After 30 min at 37° C., the excess idoacetic acid was removed using Microspin G-25 columns (GE Healthcare Life Sciences). Oxidized and reduced thioredxoin was separated by native PAGE. […]

In experiment [9] the test system is peroxiredoxin 1. Put plainly: Oxidized peroxiredoxin 1 (Prx-O3) immunoblot in SW480 cells. Particulars: 1 h, YJB01 20 μM and 100 μM, YJB05 100 μM. The class given is cell-based, human. The protocol:
The oxidized peroxiredoxin 1 (sulphonic-peroxiredoxin, Prx-O3) was detected by using the specific anti-Prx-O3 antibody. Briefly, after SW480 cells were treated with either no peptide, with YBJ01 (at 20 μM and 100 μM), or with YJB05 (at 100 μM) for 1 h, total cell lysates were collected and separated on the SDS-PAGE gel. The gel was electroblotted onto a nitrocellulose membrane and probed with anti-Prx-O3, followed by HRP-conjugated secondary antibody. Bands corresponding to sulphonic-peroxiredoxin were visualized by ECL
The oxidized peroxiredoxin 1 (sulphonic-peroxiredoxin, Prx-O3) was detected by using the specific anti-Prx-O3 antibody Briefly, after SW480 cells were treated with either no peptide, with YBJ01 (at 20 μM and 100 μM), or with YBJ05 (at 100 μM) for 1 h, total cell lysates were collected and separated on the SDS-PAGE gel. The gel was electroblotted onto a nitrocellulose membrane and probed with anti-Prx-O3, followed by HRP-conjugated secondary antibody. Bands corresponding to sulphonic-peroxiredoxin were visualized by ECL

For `CC[C@H](C)[C@H](NC(=O)[C@H](CCCCN)NC(=O)[C@@H](NC(=O)[C@H](CCC(N)=O)NC(=O)[C@H](CCCNC(=N)N)NC(=O)[C@@H]1CCCN1C(=O)[C@H](CCCNC(=N)N)NC(=O)[C@@H]1CSSC[C@H](NC(=O)[C@@H](N)[C@@H](C)O)C(=O)N2CCC[C@H]2C(=O)N[C@@H](Cc2ccc(O)cc2)C(=O)N1)[C@@H](C)CC)C(=O)N[C@@H](Cc1c[nH]c2ccccc12)C(=O)N[C@@H](Cc1ccccc1)C(=O)N[C@@H](CCC(N)=O)C(=O)N[C@@H](CC(N)=O)C(=O)N[C@@H](CCCNC(=N)N)C(=O)N[C@@H](CCCNC(=N)N)C(=O)N[C@@H](CCSC)C(=O)N[C@@H](CCCCN)C(=O)N[C@@H](Cc1c[nH]c2ccccc12)C(=O)N[C@@H](CCCCN)C(=O)N[C@@H](CCCCN)C(=O)O` [YJB03], the IC50 in [1] worked out at 153 µM; in experiment [2], 21 µM; in [3], 309 µM.
Regarding `CC[C@H](C)[C@H](NC(=O)[C@H](CCCCN)NC(=O)[C@@H](NC(=O)[C@H](CCC(N)=O)NC(=O)[C@H](CCCNC(=N)N)NC(=O)[C@@H]1CCCN1C(=O)[C@H](C)NC(=O)[C@@H]1CCCN1C(=O)[C@@H]1CSSC[C@H](NC(=O)[C@@H](N)C(C)C)C(=O)N2CCC[C@H]2C(=O)N[C@@H](C(C)C)C(=O)N1)[C@@H](C)CC)C(=O)N[C@@H](Cc1c[nH]c2ccccc12)C(=O)N[C@@H](Cc1ccccc1)C(=O)N[C@@H](CCC(N)=O)C(=O)N[C@@H](CC(N)=O)C(=O)N[C@@H](CCCNC(=N)N)C(=O)N[C@@H](CCCNC(=N)N)C(=O)N[C@@H](CCSC)C(=O)N[C@@H](CCCCN)C(=O)N[C@@H](Cc1c[nH]c2ccccc12)C(=O)N[C@@H](CCCCN)C(=O)N[C@@H](CCCCN)C(=O)O` [YJB04] (H-VCPVCPAPRQIKIWFQNRRMKWKK-OH; disulfide 2-5; N-terminus and C-terminus assumed), the results for the IC50 in [1], in [2] and in experiment [3] were 123 µM, 25 µM and 195 µM, respectively.
As for `C[C@H](N)C(=O)N[C@H](C(=O)N[C@@H](Cc1c[nH]c2ccccc12)C(=O)N[C@H]1CSSC[C@@H](C(=O)O)NC(=O)[C@@H]2CCCN2C(=O)CNC1=O)[C@@H](C)O` [YJB06] (H-ATWCGPC-OH; disulfide 4-7 (inferred); N-terminus and C-terminus assumed), the IC50 in experiment [4] was > 2000 µM. In addition, in [5] (24 hrs, 0 μM to 200 μM), the “cell killing effect, SW480” value is recorded as “failed to kill SW480 colon cancer cells”.
Turning to “ATWAGPAKPRQIKIWFQNRRMKWKK [YJB05, reference compound]”, the IC50 in [4] is > 2000 µM. In addition, the “dead cells, SW480” value in experiment [5] (200 μM, 24 hr) was determined as 21.62%. Also, the “dead cells, MCF7” value in experiment [6] was 12.52%. Further, the “apoptosis, Annexin V (+) cells, SW480” value in experiment [7] is on record as “ineffective”. In addition, the “induction of the oxidized form of thioredoxin 1” value in experiment [8] is reported as “failed to induce oxidation of thioredoxin 1; also recorded: fails to induce oxidation”. In addition, the “induction of the oxidized form of peroxiredoxin 1” value in [9] is listed as “fails to induce oxidation”.
